This is an account of results in paper PMC8132113 (Cancer letters, 2019).

For the assay, the target named is ABCB1 (Homo sapiens, UniProt P08183). Description: vanadate-sensitive ATPase assay. In kind it is biochemical.
Chain of ABCB1 (P08183 whole entry): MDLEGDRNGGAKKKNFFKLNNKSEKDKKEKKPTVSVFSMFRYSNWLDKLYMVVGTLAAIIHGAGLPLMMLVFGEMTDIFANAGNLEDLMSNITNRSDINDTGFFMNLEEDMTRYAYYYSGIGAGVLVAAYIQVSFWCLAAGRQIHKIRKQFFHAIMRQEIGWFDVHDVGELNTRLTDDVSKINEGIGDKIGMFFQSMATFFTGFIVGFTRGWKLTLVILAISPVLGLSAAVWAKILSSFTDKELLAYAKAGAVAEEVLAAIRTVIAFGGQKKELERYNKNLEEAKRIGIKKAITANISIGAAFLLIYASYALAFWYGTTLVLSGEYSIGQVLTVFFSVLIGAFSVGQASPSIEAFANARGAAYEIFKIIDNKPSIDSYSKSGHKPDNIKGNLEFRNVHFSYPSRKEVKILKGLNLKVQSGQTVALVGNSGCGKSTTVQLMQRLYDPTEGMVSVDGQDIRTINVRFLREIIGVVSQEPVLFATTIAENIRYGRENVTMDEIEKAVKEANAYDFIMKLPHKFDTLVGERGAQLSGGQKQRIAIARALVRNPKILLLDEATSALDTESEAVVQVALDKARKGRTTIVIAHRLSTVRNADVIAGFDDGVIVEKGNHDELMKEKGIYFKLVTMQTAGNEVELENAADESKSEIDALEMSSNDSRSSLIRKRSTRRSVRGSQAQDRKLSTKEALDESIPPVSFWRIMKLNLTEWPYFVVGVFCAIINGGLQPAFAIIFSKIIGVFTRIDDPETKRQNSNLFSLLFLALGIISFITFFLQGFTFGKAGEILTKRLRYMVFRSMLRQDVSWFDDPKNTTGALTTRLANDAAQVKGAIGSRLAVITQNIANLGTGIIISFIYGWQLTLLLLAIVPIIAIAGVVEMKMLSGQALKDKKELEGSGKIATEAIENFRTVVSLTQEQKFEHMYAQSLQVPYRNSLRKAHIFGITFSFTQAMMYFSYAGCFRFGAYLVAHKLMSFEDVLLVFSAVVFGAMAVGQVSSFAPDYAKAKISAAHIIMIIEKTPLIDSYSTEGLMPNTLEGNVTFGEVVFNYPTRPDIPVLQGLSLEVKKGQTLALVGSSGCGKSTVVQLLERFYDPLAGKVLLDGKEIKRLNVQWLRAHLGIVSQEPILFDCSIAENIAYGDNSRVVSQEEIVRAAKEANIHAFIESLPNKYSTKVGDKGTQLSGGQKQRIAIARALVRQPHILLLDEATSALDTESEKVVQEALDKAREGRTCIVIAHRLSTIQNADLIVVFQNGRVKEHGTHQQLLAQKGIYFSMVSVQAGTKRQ

On to `CO[C@@H]1[C@H](N(C)C(=O)c2ccccc2)C[C@H]2O[C@]1(C)n1c3ccccc3c3c4c(c5c6ccccc6n2c5c31)C(=O)NC4` [midostaurin], for which the IC50 (commonly the concentration that gives 50% inhibition) is roughly 10 µM.
